Source: publication PMC9797592, “TJ-M2010-5, a novel CNS drug candidate, attenuates acute cerebral ischemia-reperfusion injury through the MyD88/NF-κB and ERK pathway” (Frontiers in Pharmacology, 2022)

What was measured:
CIRI mice = assay: MCAO cerebral ischemia-reperfusion injury model: neurological deficit score and TTC infarct volume; assay type: in vivo, C57BL/6 mice; details: edaravone 3 mg/kg i.v. at 1 h of ischemia; 24 h reperfusion; TTC; I/R group 34.24%
Description: Male C57BL/6 mice (Beijing Vital River Laboratory Animal Technology Co. Ltd., Beijing, China) weighing 22–28 g and aged 8–10 weeks were used. All animal experiments were approved by the Institutional Animal Care and Use Committee of Tongji Hospital (Wuhan, China). All procedures were performed in accordance with specific pathogen-free standards. Mice were randomly divided into the following seven groups: sham, I/R, vehicle (I/R + saline), I/R + TJ-5 (5 mg/kg), I/R + TJ-5 (10 mg/kg), I/R + TJ-5 (15 mg/kg), and I/R + edaravone (3 mg/kg).
The mice were anesthetized with 1% pentobarbital sodium solution via intraperitoneal injection, and the body temperature was maintained at 37.0°C–37.5°C. The middle cerebral artery occlusion (MCAO) model was established according to the Longa method, as described previously ([Longa et al., 1989]). In brief, the right carotid artery was carefully separated and exposed. A silicon-coated embolic suture (Doccol, United States) was inserted slowly from the external carotid artery (ECA) into the internal carotid artery (ICA) until it reached the middle cerebral artery (MCA). After 1 h of ischemia, the embolic suture was withdrawn. The surgical procedure in the sham group was the same as that in the I/R group, but the MCA was not obstructed.
After 24 h of reperfusion, each group of mice was scored blindly, according to the scoring system of the Longa method ([Longa et al., 1989]). The score was 0 for no obvious neurological deficit, one for inability to fully extend the left forelimb, two for turning to the left, three for leaning to the left while walking, and four for the inability to walk spontaneously and impaired consciousness.
The mice were sacrificed 24 h after I/R. Mouse brains were harvested for the measurement of cerebral infarct volume. The brains were frozen at −80°C for 5 min and cut into five 2-mm thick slices. The slices were then placed in a small dish, 2% 2,3,5-triphenyltetrazolium chloride (TTC) solution (Sigma, United States) was added, and 4% paraformaldehyde was used for fixation. Images were captured using a digital camera. ImageJ software was used to measure the volume of the brain infarction.

NF-κB p65 = NF-κB p65 nuclear translocation in LPS-stimulated BV-2 cells, immunofluorescence; assay type: cell-based; details: 12 h after LPS stimulation
Description: BV-2 microglial and SH-SY5Y cells were cultured as previously described ([Zhao et al., 2020]). A lipopolysaccharide (LPS)-stimulated BV-2 cell model was established to mimic severe neuroinflammation induced by multiple inflammatory mediators after reperfusion ([Li et al., 2021]). BV-2 cells were pretreated with different concentrations of TJ-5 for 2 h before LPS (1 μg/ml) stimulation (#L2880, Sigma, United States). […] In addition, ST2825, a recognized MyD88 inhibitor, was used as positive control group.
For BV-2 cells immunofluorescence staining, the cells were fixed with 4% paraformaldehyde for 10 min and permeabilized with 0.5% Triton X-100 for 10 min. After blocking with goat serum, the cells were sequentially incubated with the primary antibody, secondary antibody, and Hoechst in sequence. Images were captured using a confocal microscope. The fluorescence intensity was analyzed using ImageJ software.

[1] = test system: LPS-stimulated BV-2 cells; assay: LPS-stimulated BV-2 cell model: morphology and TNF-α/IL-6 ELISA; assay type: cell-based; details: LPS-stimulated BV-2 cells; pretreatment 2 h, LPS 24 h; ELISA
Description: BV-2 microglial and SH-SY5Y cells were cultured as previously described ([Zhao et al., 2020]). A lipopolysaccharide (LPS)-stimulated BV-2 cell model was established to mimic severe neuroinflammation induced by multiple inflammatory mediators after reperfusion ([Li et al., 2021]). BV-2 cells were pretreated with different concentrations of TJ-5 for 2 h before LPS (1 μg/ml) stimulation (#L2880, Sigma, United States). Twenty-4 hours later, BV-2 cells and the culture supernatants were harvested for subsequent experiments. In addition, ST2825, a recognized MyD88 inhibitor, was used as positive control group.
Enzyme-linked immunosorbent assay (ELISA) kits were used to detect the levels of TNF-α, IL-1β, and IL-6 in the brain. Brain tissue was homogenized in 1 ml of phosphate-buffered saline using a tissue homogenizer. Then, the homogenates were centrifuged at 14,000 g for 10 min at 4 °C. The supernatant was immediately transferred for measurement following the manufacturer’s instructions. BV-2 cells were incubated with different treatments and the supernatants were collected and measured.

SMILES | percentage of infarct volume (CIRI mice) [%] | LPS-induced NF-κB p65 nuclear translocation (NF-κB p65) | levels of TNF-α and IL-6 in supernatants [1]
CC1=NN(c2ccccc2)C(=O)C1 [edaravone, reference compound] | 18.59 | – | –
NC(=O)[C@H]1CCS[C@@H]2C[C@]3(CCCN3C(=O)Cc3ccc(NC(=O)COc4ccc(Cl)cc4Cl)cc3)C(=O)N12 [ST2825, reference compound] | – | same | same anti-inflammatory effect
